From article PMC10017790 (Nature Communications, 2023)

Tests used:
[1] = system: CaPPAR; assay type: biochemical, Capsicum annuum; details: 2 mM NADPH, 0.1 M Tris-HCl pH 8.0, 1 h
[2] = system: T1, PaPPAR; assay type: biochemical, Petunia axillaris; details: 2 mM NADPH, 0.1 M Tris-HCl pH 8.0, 1 h
T1 construct: gene PPAR

[3] = target: T2, AbLS (Atropa belladonna, UniProt A0A3B6XRA5); details: 1 mM tropine and 1 mM phenyllactate infiltrated; AbUGT1 coexpressed; 24 h
T2 construct: gene LS

[4] = target: T3, SlTRI (Solanum lycopersicum, UniProt A0A3Q7IM65); assay type: biochemical; details: 200 uM NADPH, 0.1 M potassium phosphate pH 6.4, 30 C
T3 construct: gene LOC101265293; CDS cloned from cDNA into pET28a; recombinant His-tagged, Ni-NTA purified; Leu159 printed
T3 sequence (A0A3Q7IM65 9-272): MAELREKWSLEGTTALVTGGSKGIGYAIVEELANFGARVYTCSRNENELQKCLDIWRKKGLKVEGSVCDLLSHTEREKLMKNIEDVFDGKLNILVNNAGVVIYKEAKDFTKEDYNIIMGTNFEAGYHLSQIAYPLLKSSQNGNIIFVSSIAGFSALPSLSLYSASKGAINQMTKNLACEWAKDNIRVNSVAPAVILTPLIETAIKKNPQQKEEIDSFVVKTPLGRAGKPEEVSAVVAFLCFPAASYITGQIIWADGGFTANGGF

[5] = system: O=C(O)C(=O)Cc1ccccc1; assay: purified protein; details: 2 mM NADPH, 0.1 M Tris-HCl pH 8.0, 1 h

T2 sequence (A0A3B6XRA5 34-476 limits assumed): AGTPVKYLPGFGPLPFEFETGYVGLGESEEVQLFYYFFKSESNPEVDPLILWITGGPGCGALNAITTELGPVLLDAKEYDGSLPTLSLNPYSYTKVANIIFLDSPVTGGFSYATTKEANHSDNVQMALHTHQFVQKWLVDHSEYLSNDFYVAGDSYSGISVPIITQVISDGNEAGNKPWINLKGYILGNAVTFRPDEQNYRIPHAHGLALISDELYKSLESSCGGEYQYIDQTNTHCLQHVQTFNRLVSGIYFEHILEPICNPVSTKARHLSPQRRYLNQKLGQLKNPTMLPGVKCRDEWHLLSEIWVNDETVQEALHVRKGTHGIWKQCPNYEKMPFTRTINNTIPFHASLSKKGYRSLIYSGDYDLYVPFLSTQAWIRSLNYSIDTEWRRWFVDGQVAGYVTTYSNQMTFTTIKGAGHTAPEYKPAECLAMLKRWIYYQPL

Compound | Km [5] | kcat [5] | further results
O=C(O)C(=O)Cc1ccccc1 [phenylpyruvic acid] |  |  | Km [1]: 3020 ± 485 µM; Km [2]: 2650 ± 374 µM
CN1[C@@H]2CC[C@H]1C[C@@H](O)C2 [tropine] |  |  | transient expression in N. benthamiana leaves, littorine by UPLC-MS [3]: we detected littorine in tobacco leaves expressing DsLS and AbLS
CN1[C@@H]2CC[C@H]1CC(=O)C2 [tropinone] |  |  | Km [4]: TRI from tomato also showed TRI activity
AbPPAR (Atropa belladonna) | 2085 ± 461.3 µM | 0.0098 ± 0.00074 s⁻¹ | 
SlPPAR (Solanum lycopersicum) | 1380 ± 130 µM | 0.03355 ± 0.00253 s⁻¹ | 
